Laboratory results taken from paper PMC3412176 (Journal of biological inorganic chemistry : JBIC : a …, 2012).

Target: T1, S. oneidensis cytochrome c nitrite reductase (ccNiR, NrfA) (Shewanella oneidensis, UniProt Q8EAC7)
T1 sequence (Q8EAC7 28-467): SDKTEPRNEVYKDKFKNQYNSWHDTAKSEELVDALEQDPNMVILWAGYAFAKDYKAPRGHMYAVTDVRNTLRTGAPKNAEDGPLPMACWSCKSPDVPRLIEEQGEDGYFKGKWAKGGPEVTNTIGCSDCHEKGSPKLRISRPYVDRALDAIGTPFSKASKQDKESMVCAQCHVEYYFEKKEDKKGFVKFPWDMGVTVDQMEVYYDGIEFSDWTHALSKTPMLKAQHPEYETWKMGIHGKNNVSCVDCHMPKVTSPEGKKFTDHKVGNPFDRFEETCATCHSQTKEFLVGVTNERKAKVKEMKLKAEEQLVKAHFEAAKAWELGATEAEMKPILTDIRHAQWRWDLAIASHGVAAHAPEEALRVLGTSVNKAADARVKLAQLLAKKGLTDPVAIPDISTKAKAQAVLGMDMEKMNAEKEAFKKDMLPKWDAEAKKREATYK
Format: biochemical

Q: Which Ki does the source give for `O=S(O)O` [sulfite] here?
A: The Ki was ~600 µM.
